# ChEMBL document CHEMBL4725373, “Introduction of Scaffold Nitrogen Atoms Renders Inhibitors of the Malarial l-Lactate Transporter, PfFNT, Effective against the Gly107Ser Resistance Mutation” (J Med Chem, 2020)
# Active and inactive are the calls of the source. No cut-off for these calls is given here.
# How the values were obtained:
# [1] = (§1) Inhibition of Plasmodium falciparum FNT G107S mutant expressed in Saccharomyces cerevisiae W303-1A del-jen1 ady2-del (MATa, can1-100, ade2-loc, his3-11-15, leu2-3,-112, trp1-1-1, ura3-1, jen1::kanMX4, ady2::hphMX4) assessed as reduction in [1-14C]-L-lactate uptake incubated for 10 to 15 mins followed by [1-14C]-L-lactate addition and measured after 120 secs by liquid scintillation counting method
# Plasmodium falciparum [2] = test: Antiplasmodial activity against Plasmodium falciparum 3D7 assessed as reduction in parasitemia incubated for 48 hrs supplemented with fresh medium containing compound at 24 hrs by LSR II FACS method; type: functional, organism-based
# [3] = as §1, with “FNT” for “FNT G107S mutant”, “30” for “120”
# Plasmodium falciparum [4] = test: Antiplasmodial activity against Plasmodium falciparum 3D7 assessed as reduction in parasitemia after 24 hrs by LSR II FACS method; type: functional, organism-based; conditions: 3D7, 24 h
# [5] = as §1, with “20” for “10 to 15”, “addition” for “addition and measured after 120 secs”
# [6] = as §1, with “FNT” for “FNT G107S mutant”, “20” for “10 to 15”, “addition” for “addition and measured after 120 secs”
# Plasmodium falciparum [7] = test: Antiplasmodial activity against Plasmodium falciparum 3D7 assessed as reduction in parasite regrowth at 0.75 uM incubated for 14 days followed by compound washout and measured after 30 days; type: functional, organism-based; conditions: time 14.0 day
# Plasmodium falciparum [8] = test: Antiplasmodial activity against Plasmodium falciparum 3D7 assessed as reduction in parasite regrowth at 0.45 uM incubated for 14 days followed by compound washout and measured after 7 days; type: functional, organism-based; conditions: time 14.0 day
compound,measurement,setting,value
O=C(/C=C(\O)C(F)(F)C(F)(F)F)c1ccc(Cl)cn1,IC50,[1],510 nM
same,EC50,Plasmodium falciparum [2],14000 nM
same,IC50,[3],230 nM
O=C(/C=C(\O)C(F)(F)C(F)(F)F)c1cnccn1,IC50,[1],1200 nM
same,IC50,[3],460 nM
O=C(/C=C(\O)C(F)(F)CO)c1cccnc1,IC50,[3],5500 nM
CCCCC(F)(F)/C(O)=C/C(=O)c1cccnc1,IC50,[1],24000 nM
same,EC50,Plasmodium falciparum [2],20100 nM
same,IC50,[3],360 nM
COc1ccc(CC(=O)/C=C(\O)C(F)(F)C(F)(F)F)cc1,IC50,[1],69000 nM
same,IC50,[3],1900 nM
COc1ccc(CCC(=O)/C=C(\O)C(F)(F)C(F)(F)F)cc1,IC50,[1],6300 nM
same,IC50,[3],190 nM
COc1ccc(C(=O)/C=C(\O)C(F)(F)C(F)(F)F)cc1,EC50,Plasmodium falciparum [4],3400 nM
same,IC50,[5],2600 nM
same,IC50,[6],140 nM
Cc1[nH]nc(C(F)(F)F)c1Cc1sc2c(c1C(=O)N1C[C@](C)(O)CO1)c(=O)n(C)c(=O)n2C(C)C,Activity,Plasmodium falciparum [2],inactive
O=C(/C=C(\O)C(F)(F)C(F)(F)F)c1ccccn1,IC50,[1],580 nM
same,EC50,Plasmodium falciparum [2],13500 nM
same,IC50,[3],150 nM
O=C(/C=C(\O)C(F)(F)C(F)(F)F)c1cnc2ccccc2c1,IC50,[1],96000 nM
same,IC50,[3],240 nM
Cc1ccc(C(=O)/C=C(\O)C(F)(F)C(F)(F)F)cn1,IC50,[1],1700 nM
same,IC50,[3],150 nM
O=C(/C=C(\O)C(F)(F)C(F)(F)F)Nc1ccccc1,IC50,[1],378000 nM
same,IC50,[3],18000 nM
O=C(/C=C(\O)C(F)(F)C(F)(F)F)c1cc2ccccc2o1,IC50,[1],17000 nM
same,IC50,[3],190 nM
O=C(/C=C(\O)C(F)(F)C(F)(F)F)c1cccnc1,Activity,Plasmodium falciparum [7],Active
same,IC50,[1],630 nM
same,EC50,Plasmodium falciparum [2],240 nM
same,IC50,[3],110 nM
O=C(/C=C(\O)C(F)(F)C(F)(F)F)c1cccnn1,IC50,[1],3800 nM
same,IC50,[3],860 nM
COc1ccc(C(=O)/C=C(\O)C(F)(F)C(F)(F)F)c(O)c1,EC50,Plasmodium falciparum [4],140 nM
same,IC50,[5],20000 nM
same,Activity,Plasmodium falciparum [8],inactive
same,IC50,[6],170 nM
Cn1ccc(C(=O)/C=C(\O)C(F)(F)C(F)(F)F)c1,IC50,[1],14000 nM
same,IC50,[3],130 nM
O=C(/C=C(\O)C(F)(F)C(F)(F)F)/C=C/c1ccccc1,IC50,[1],26000 nM
same,IC50,[3],290 nM
O=C(/C=C(\O)C(F)(F)C(F)(F)F)c1cc[nH]c1,IC50,[1],13000 nM
same,IC50,[3],200 nM
O=C(/C=C(\O)C(F)(F)C(F)(F)F)c1ccc[nH]1,IC50,[1],12000 nM
same,IC50,[3],160 nM
O=C(/C=C(\O)C(F)(F)C(F)(F)F)c1ccncc1,IC50,[1],22000 nM
same,IC50,[3],150 nM
COc1ccc(C(=O)/C=C(\O)C(F)(F)C(F)(F)F)cn1,IC50,[1],260 nM
same,EC50,Plasmodium falciparum [2],3880 nM
same,IC50,[3],110 nM
CC(C)(O)CC(=O)/C=C(\O)C(F)(F)C(F)(F)F,IC50,[1],490000 nM
same,IC50,[3],1100 nM
